Laboratory results as given in PMC6766826, “Antiproliferative S-Trityl-L-Cysteine -Derived Compounds as SIRT2 Inhibitors: Repurposing and Solubility Enhancement” (Molecules, 2019).
Counter-ions that a name gives are not always drawn. Each block holds one compound with its values, some of them ahead of it.

Experiments:
SIRT2 = target: T1, SIRT2 (Homo sapiens, UniProt Q8IXJ6); experiment: In vitro SIRT2 deacetylase inhibition, electrophoretic mobility shift assay; assay type: biochemical; conditions: for SIRT2 inhibition activity (in words): in vitro; for IC50: recombinant SIRT2, FAM-RHKK(Ac)LM peptide, 1 mM NAD, 60 min 37 °C, mean ± SD, read-out: IC50 against SIRT2
T1 sequence (Q8IXJ6 1-389): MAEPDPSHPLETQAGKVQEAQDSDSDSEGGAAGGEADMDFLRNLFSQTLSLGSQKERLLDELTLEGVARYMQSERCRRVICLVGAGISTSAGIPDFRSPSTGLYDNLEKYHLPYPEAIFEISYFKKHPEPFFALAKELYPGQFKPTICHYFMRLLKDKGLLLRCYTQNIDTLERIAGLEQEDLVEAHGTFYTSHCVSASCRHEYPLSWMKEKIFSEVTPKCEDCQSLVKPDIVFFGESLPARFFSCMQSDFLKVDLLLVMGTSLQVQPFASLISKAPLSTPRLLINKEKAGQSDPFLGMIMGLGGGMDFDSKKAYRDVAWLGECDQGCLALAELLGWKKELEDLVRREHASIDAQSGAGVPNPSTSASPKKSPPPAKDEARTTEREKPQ
Description: The designs of the new STLC derivatives were based on TH-3 by conserving its trityl group, whereas the L-histidine moiety was replaced by L-cysteine. To obtain exhaustive structure–activity relationship (SAR) information, the amino group was reductively alkylated or acylated using different substituted aldehydes and acyl chlorides, respectively. The terminal methyl ester group was kept or converted to hydrazide (Figure 2). […] Two noncommercially available aldehydes, 4-(dimethylamino)picolinaldehyde and 4-(diethylamino)picolinaldehyde, were prepared as described previously. Thereafter, the in vitro SIRT2 inhibitory activities of these synthesized compounds were examined using electrophoretic mobility shift assays
Deacetylase activities of SIRT2 were measured with an electrophoretic mobility shift assay. […] After 60 min at 37 °C, the reaction was stopped by adding nicotinamide (final concentration 10 mM) in 50 μL stop buffer (100 mM HEPES (pH 7.5), 10 mM EDTA, 0.25% CR-3). The samples were analyzed using a LabChip EZ Reader II (PerkinElmer, Waltham, MA, USA). Percent conversion was defined as 100 × P / (P + S), where P and S are peak heights of the product and peptide substrate, respectively. The IC50 values were determined as means with standard deviation calculated from at least three independent dose–response curves using Origin software (OriginLab, Northampton, MA, USA).

HeLa = experiment: MTT assay, HeLa cells; assay type: cell-based, human; conditions: 96 h exposure, cervical cancer
Description: (§1) Next, the three active compounds (STC4, STC9, and STC11) were utilized for a cell-based assay to explore their potential antiproliferative effect against different cancer cell lines, including MCF7 (breast cancer), HeLa (cervical cancer), and different genotypes of leukemic cells (K562, MT-2, and HL-60) using an MTT assay. […] In general, STC11 cellular activity was less than STC4 and STC9. This may be explained by the lower cellular permeability due to the presence of the more polar hydrazide group.
(§2) HeLa human cervical carcinoma cell lines were incubated in Dulbecco’s modified Eagle’s medium. MCF-7 human breast cancer, leukemic (K562, HL-60, MT-2, and Jurkat), and normal blood (PBMC) (Precision Bioservices, Frederic, MD, USA) cells were incubated in RPMI1640 medium. All media (Wako, Osaka, Japan) were supplemented with 10% fetal bovine serum (Sigma-Aldrich, St. Louis, MO, USA) and 89 μg/mL streptomycin (Meiji Seika, Tokyo, Japan) at 37 °C in a humidified atmosphere of 95% air and 5% CO2. Exponentially growing cells were cultured in 24-well and 96-well plates (Iwaki brand Asahi Glass, Tokyo, Japan) at 2 × 10^4 cells/mL and 1 × 10^6 cells/mL, respectively, for 96 h before the addition of drugs (optimum cell number for cytotoxicity assays was determined in preliminary experiments). Stock solutions of compounds in concentrations between 0.01–10 mM were prepared in dimethyl sulfoxide (DMSO; Wako, Osaka, Japan) and further dilution was made with fresh culture medium. The concentration of DMSO in the final culture medium was 1%, which had no effect on cell viability.
(§3) The level of cellular MTT (Dojindo, Kumamoto, Japan) reduction was quantified as described previously […] At the end of this period, cells were stained with MTT solution and incubated for an additional 4 h at 37 °C. After the medium was removed, the formazan crystals were solubilized by addition of 100 μL DMSO to each well, and absorbance was determined using an Infinitive M1000 plate reader (Tecan, Mannedorf, Switzerland) at a wavelength of 550 nm with background subtraction at 630 nm. Every concentration was repeated in three wells, and IC50 values were calculated from MTT results and defined as the drug concentrations that reduced absorbance to 50% of the control values.

K562 = experiment: MTT assay, K562 cells; assay type: cell-based, human; conditions: leukemic cells
Description: as §1, §2, §3

MCF-7 = experiment: MTT assay, MCF-7 cells; assay type: cell-based, human; conditions: breast cancer
Description: as §1, §2, §3

HL-60 = experiment: MTT assay, HL-60 cells; assay type: cell-based, human; conditions: leukemic cells
Description: as §1, §2, §3

MT-2 = experiment: MTT assay, MT-2 cells; assay type: cell-based, human; conditions: leukemic cells
Description: as §1, §2, §3

plasmid DNA (pUC19 DNA) = experiment: DNA cleavage assay with plasmid DNA; conditions: 1 μM concentration, 37 °C, 2 h, with and without iron (II), H2O2, ascorbic acid
Procedure: We then tested DNA cleavage as a possible molecular mechanism for cytotoxicity of the tested compounds using plasmid DNA (pUC19 DNA) witH- and without iron (II), H2O2, and ascorbic acid complex (Figure 3). The DNA cleavage reaction was carried out by incubating the reaction mixture at 37 °C for 2 h, and electrophoresis was performed. After electrophoresis, the DNA was stained with ethidium bromide, and the bands were visualized by exposure to ultraviolet radiation and recorded using an electronic camera. […] Furthermore, these compounds may activate oxygen in the cytoplasm. This may explain their high cellular cytotoxic activity owing to a dual effect combining SIRT2 inhibition and DNA cleavage.
The DNA cleavage assays were performed as described previously. Intensity of the bands was quantitated using ImageJ software (NIH, Bethesda, MD, USA).
Figure 3 The inhibitory effects of selected compounds on DNA cleavage in the presence and absence of FeSO4, H2O2, and ascorbic acid. (A) Form I (supercoil), form II (single strand break), and form III (double strand break) bands after electrophoresis. The Form I band is the lower and the Form II band is the upper portion. The pUC19 enzyme cut (by EcoR I) generates form III with mid mobility (the second lane from the left). (B) Relative intensity of form I and form II bands.

NCI 60 tumor cell line = test system: NCI 60 tumor cell line; set-up: method as in doi:10.1002/ddr.430340203; conditions: NCI 60 tumor cell line screen; cited from earlier work
[1] = Homo sapiens, K562, 96 h exposure
[2] = Homo sapiens, MCF7, 96 h exposure
[3] = Homo sapiens, HL-60, 96 h exposure
[4] = Homo sapiens, MT2, 96 h exposure

- SIRT2 inhibition activity (in words) (SIRT2): inactive
- IC50 (SIRT2): > 100 µM
Compound: COC(=O)C(N)CSC(c1ccccc1)(c1ccccc1)c1ccccc1 (stereo in doubt) [Compound 1, S-Trityl-L-Cysteine Methyl Ester Hydrochloride]

- IC50 (SIRT2): > 100 µM
Compound: COC(=O)[C@H](CSC(c1ccccc1)(c1ccccc1)c1ccccc1)NCc1cccc(Br)n1 [STC1, Methyl N-((6-bromopyridin-2-yl)methyl)-S-trityl-L-cysteinate]

- IC50 (SIRT2): > 100 µM
Compound: CCN(CC)c1ccc(CN[C@@H](CSC(c2ccccc2)(c2ccccc2)c2ccccc2)C(=O)OC)cc1 [STC2, Methyl N-(4-(diethylamino)benzyl)-S-trityl-L-cysteinate]

- IC50 (SIRT2): > 100 µM
Compound: COC(=O)[C@H](CSC(c1ccccc1)(c1ccccc1)c1ccccc1)NCc1ccc(N(C)C)cc1 [STC3, Methyl N-(4-(dimethylamino)benzyl)-S-trityl-L-cysteinate]

- IC50 (HeLa; Homo sapiens, HeLa): 1.56 ± 0.17 µM
- IC50 (K562; [1]): 2.17 ± 0.25 µM
- IC50 (MCF-7; [2]): 3.16 ± 0.26 µM
- IC50 (HL-60; [3]): 0.45 ± 0.05 µM
- IC50 (SIRT2): 10.8 ± 1.9 µM
- fold decrease in SIRT2 inhibition activity compared with TH-3 (SIRT2; vs TH-3): 10 fold
Compound: COC(=O)[C@H](CSC(c1ccccc1)(c1ccccc1)c1ccccc1)NCc1cc(N(C)C)ccn1 [STC4, Methyl N-((4-(dimethylamino)pyridin-2-yl)methyl)-S-trityl-L-cysteinate]
- IC50 (MT-2; [4]): 3.15 ± 0.13 µM

- IC50 (SIRT2): > 100 µM
Compound: COC(=O)[C@H](CSC(c1ccccc1)(c1ccccc1)c1ccccc1)NCc1ccc(N(C)C)cc1Cl [STC5, Methyl N-(2-chloro-4-(dimethylamino)benzyl)-S-trityl-L-cysteinate]

- IC50 (SIRT2): > 100 µM
Compound: COC(=O)[C@H](CSC(c1ccccc1)(c1ccccc1)c1ccccc1)NCc1ccc(N(C)C)cc1OC [STC6, Methyl N-(2-methoxy-4-(dimethylamino)benzyl)-S-trityl-L-cysteinate]

- IC50 (SIRT2): > 100 µM
Compound: COC(=O)[C@H](CSC(c1ccccc1)(c1ccccc1)c1ccccc1)NCc1cnc2ccccc2c1 [STC7, Methyl N-(quinolin-3-ylmethyl)-S-trityl-L-cysteinate]

- SIRT2 inhibition activity (in words) (SIRT2): devoid of SIRT2 inhibition activity
- IC50 (SIRT2): > 100 µM
Compound: COC(=O)[C@H](CSC(c1ccccc1)(c1ccccc1)c1ccccc1)NCc1ccccn1 [STC8, Methyl N-(pyridin-2-ylmethyl)-S-trityl-L-cysteinate]

- IC50 (HeLa; Homo sapiens, HeLa): 2.72 ± 0.19 µM
- IC50 (K562; [1]): 2.53 ± 0.31 µM
- IC50 (MCF-7; [2]): 3.32 ± 0.41 µM
- IC50 (HL-60; [3]): 1.19 ± 0.09 µM
- IC50 (SIRT2): 17.2 ± 1.2 µM
Compound: CCN(CC)c1ccnc(CN[C@@H](CSC(c2ccccc2)(c2ccccc2)c2ccccc2)C(=O)OC)c1 [STC9, Methyl N-((4-(diethylamino)pyridin-2-yl)methyl)-S-trityl-L-cysteinate]
- IC50 (MT-2; [4]): 2.55 ± 0.28 µM
- DNA cleavage effect (plasmid DNA (pUC19 DNA)): strongest DNA cleavage effect

- SIRT2 inhibition activity (in words) (SIRT2): no activity
- IC50 (SIRT2): > 100 µM
Compound: COC(=O)[C@H](CSC(c1ccccc1)(c1ccccc1)c1ccccc1)NC(=O)c1cc(N(C)C)ccn1 [STC10, Methyl N-(4-(dimethylamino)picolinoyl)-S-trityl-L-cysteinate]

- IC50 (HeLa; Homo sapiens, HeLa): 7.95 ± 0.81 µM
- IC50 (K562; [1]): 15 ± 1.17 µM
- IC50 (MCF-7; [2]): 10 ± 1.12 µM
- IC50 (HL-60; [3]): 12.8 ± 0.95 µM
- IC50 (SIRT2): 9.5 ± 1.2 µM
Compound: CN(C)c1ccnc(CN[C@H](CSC(c2ccccc2)(c2ccccc2)c2ccccc2)C(=O)NN)c1 [STC11, (S)-2-(((4-(dimethylamino)pyridin-2-yl)methyl)amino)-3-(tritylthio)propanehydrazide]
- IC50 (MT-2; [4]): 16.8 ± 1.04 µM

Compound: N[C@@H](CSC(c1ccccc1)(c1ccccc1)c1ccccc1)C(=O)O [STLC, S-trityl-L-cysteine]
- half maximal tumor growth inhibition concentration (NCI 60 tumor cell line): 1.3 µM

- IC50 (HeLa): 10.4 ± 0.94 µM
- IC50 (K562; 96 h exposure): 13.7 ± 0.44 µM
- IC50 (MCF-7; 96 h exposure): 17.1 ± 2.15 µM
- IC50 (HL-60; 96 h exposure): 90.6 ± 8.77 µM
Compound: Cc1cc(C)nc(SCC(=O)Nc2ncc(Cc3cccc4ccccc34)s2)n1 [SirReal2, reference compound]
- IC50 (MT-2; 96 h exposure): 17.9 ± 1.52 µM

- IC50 (HeLa; Homo sapiens, HeLa): 0.37 ± 0.04 µM
- IC50 (K562; [1]): 0.3 ± 0.02 µM
- IC50 (MCF-7; [2]): 0.71 ± 0.08 µM
- IC50 (HL-60; [3]): 0.28 ± 0.04 µM
- IC50 (SIRT2): 1.3 ± 0.2 µM
Compound: CCN(CC)c1ccnc(CN[C@H](Cc2cn(C(c3ccccc3)(c3ccccc3)c3ccccc3)cn2)C(=O)OC)c1 [TH-3, reference compound]
- IC50 (MT-2; [4]): 0.17 ± 0.02 µM
